Measured values published in patent US9938272B2, “Hydrazine compound as blood coagulation factor Xa inhibitor” (NORTH CHINA PHARMACEUTICAL COMPANY., LTD., priority 2014, dated 2018).

Key:
[1] = terminal phase; cited from earlier work
rat Factor Xa = rat Factor Xa (Rattus norvegicus (Rat), UniProt Q63207); test: Rat factor Xa chromogenic assay; format: biochemical; conditions: substrate S-2222, read-out: rfXa Ki
human thrombin = human thrombin (Homo sapiens (Human), UniProt P00734); test: Human thrombin assay; format: biochemical; conditions: substrate S-2238
prothrombinase = prothrombinase (Homo sapiens (Human), UniProt P00742); test: Prothrombinase assay (thrombin generation); format: biochemical; conditions: human factor Xa with human platelets, prothrombin, substrate S-2238
Chain of prothrombinase (P00742 235-488): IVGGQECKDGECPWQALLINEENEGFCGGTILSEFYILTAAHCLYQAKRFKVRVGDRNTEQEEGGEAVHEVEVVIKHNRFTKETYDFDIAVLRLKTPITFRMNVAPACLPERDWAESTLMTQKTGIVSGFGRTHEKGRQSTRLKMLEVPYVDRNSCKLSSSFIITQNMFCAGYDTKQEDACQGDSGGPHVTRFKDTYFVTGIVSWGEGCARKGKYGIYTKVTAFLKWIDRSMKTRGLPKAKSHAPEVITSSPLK
Chain of prothrombinase (P00742 41-179): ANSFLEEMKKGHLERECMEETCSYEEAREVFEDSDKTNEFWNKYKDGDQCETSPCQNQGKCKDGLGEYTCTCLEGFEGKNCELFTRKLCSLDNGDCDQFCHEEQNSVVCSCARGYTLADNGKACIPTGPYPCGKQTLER
Chain of prothrombinase (P12259 29-737 partner): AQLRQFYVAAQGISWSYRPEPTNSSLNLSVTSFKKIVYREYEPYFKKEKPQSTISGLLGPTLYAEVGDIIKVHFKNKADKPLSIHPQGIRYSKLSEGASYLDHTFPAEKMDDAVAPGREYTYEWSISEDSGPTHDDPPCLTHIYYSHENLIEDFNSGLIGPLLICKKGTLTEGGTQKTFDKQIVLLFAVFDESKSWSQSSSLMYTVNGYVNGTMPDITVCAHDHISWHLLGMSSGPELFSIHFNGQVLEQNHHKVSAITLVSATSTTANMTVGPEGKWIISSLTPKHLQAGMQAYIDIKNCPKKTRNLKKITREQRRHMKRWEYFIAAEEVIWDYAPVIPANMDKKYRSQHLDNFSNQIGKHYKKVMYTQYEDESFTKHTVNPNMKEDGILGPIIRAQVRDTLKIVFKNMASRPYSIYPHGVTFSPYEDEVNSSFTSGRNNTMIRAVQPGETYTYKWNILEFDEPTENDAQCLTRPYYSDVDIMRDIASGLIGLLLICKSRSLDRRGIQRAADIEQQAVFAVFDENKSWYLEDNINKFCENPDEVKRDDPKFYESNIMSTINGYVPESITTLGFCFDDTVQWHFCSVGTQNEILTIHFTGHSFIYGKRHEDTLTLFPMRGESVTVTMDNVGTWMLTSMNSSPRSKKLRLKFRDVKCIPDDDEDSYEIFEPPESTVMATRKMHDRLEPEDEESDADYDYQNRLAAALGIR
Chain of prothrombinase (P12259 1574-2224 partner): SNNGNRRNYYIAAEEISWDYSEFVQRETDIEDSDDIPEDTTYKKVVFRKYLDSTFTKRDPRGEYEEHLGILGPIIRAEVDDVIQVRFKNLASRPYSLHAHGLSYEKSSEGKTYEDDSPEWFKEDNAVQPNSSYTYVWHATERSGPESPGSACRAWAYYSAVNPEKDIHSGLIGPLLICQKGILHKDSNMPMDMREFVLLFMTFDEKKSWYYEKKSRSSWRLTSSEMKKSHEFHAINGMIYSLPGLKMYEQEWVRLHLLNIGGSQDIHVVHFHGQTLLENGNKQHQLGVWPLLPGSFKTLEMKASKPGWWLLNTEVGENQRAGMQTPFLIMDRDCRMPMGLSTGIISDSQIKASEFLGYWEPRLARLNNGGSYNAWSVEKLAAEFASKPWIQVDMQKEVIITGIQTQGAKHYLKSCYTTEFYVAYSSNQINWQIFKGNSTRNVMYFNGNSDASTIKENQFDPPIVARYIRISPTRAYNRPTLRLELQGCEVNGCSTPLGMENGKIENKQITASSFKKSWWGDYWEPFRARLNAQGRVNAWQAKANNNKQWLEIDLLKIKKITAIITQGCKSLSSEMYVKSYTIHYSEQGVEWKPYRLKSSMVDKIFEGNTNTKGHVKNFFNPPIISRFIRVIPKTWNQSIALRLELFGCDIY

human trypsin = human trypsin (Homo sapiens, UniProt P07477); test: Human trypsin assay; format: biochemical; conditions: substrate S-2222
human Factor Xa = human Factor Xa (Homo sapiens (Human), UniProt P00742); test: Human factor Xa chromogenic assay; format: biochemical; conditions: substrate S-2222, read-out: hfXa Ki
Chain of human Factor Xa (P00742 235-488): as the sequence (P00742 235-488) above
Chain of human Factor Xa (P00742 41-179): as the sequence (P00742 41-179) above

[2] = cited from earlier work

Chain of rat Factor Xa (Q63207 232-482): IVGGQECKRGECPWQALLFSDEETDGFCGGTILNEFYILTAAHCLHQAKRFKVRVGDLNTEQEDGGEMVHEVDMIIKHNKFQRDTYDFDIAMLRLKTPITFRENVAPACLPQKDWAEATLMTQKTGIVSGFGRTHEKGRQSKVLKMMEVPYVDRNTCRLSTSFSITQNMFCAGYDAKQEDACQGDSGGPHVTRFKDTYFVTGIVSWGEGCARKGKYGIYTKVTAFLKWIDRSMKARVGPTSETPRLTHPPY
Chain of rat Factor Xa (Q63207 41-180): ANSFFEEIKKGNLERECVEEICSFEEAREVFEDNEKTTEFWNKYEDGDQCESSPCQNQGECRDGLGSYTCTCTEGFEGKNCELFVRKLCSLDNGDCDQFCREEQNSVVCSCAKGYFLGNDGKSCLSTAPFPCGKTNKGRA

Ki (rat Factor Xa)	Ki (human thrombin)	Ki (prothrombinase)	Ki (human trypsin)	Ki (human Factor Xa)	Structure (SMILES)	mean elimination t½ [1]	water solubility [2]
					COc1ccc(-n2nc(C(N)=O)c3c2C(=O)N(c2ccc(N4CCCCC4=O)cc2)CC3)cc1 [Apixaban, apixaban]	8 to 15 h	
0.01 to 0.05 µM	≥ 1 µM	≤ 0.01 µM	≥ 1 µM	≤ 0.01 µM	COc1ccc(-n2nc(C(N)=O)c3c2C(=O)N(C2CCN(N4CCOCC4=O)CC2)CC3)cc1 [Example 7, 1-(4-Methoxyphenyl)-7-oxo-6-(1-(3-oxomorpholino)piperidin-4-yl)-4,5,6,7-tetrahydro-1H-pyrazolo[3,4-c]pyridine-3-carboxamide]		
					O=C(NC[C@H]1CN(c2ccc(N3CCOCC3=O)cc2)C(=O)O1)c1ccc(Cl)s1 [rivaroxaban]		limited
0.01 to 0.05 µM	≥ 1 µM	≤ 0.01 µM	≥ 1 µM	≤ 0.01 µM	COc1ccc(-n2nc(/C(N)=N\C#N)c3c2C(=O)N(C2CCN(N4CCCCC4=O)CC2)CC3)cc1 [Example 6, N′-Cyano-1-(4-methoxyphenyl)-7-oxo-6-(2′-oxo-[1,1′-bipiperidin]-4-yl)-4,5,6,7-tetrahydro-1H-pyrazolo[3,4-c]pyridine-3-carboximidamide]		
≤ 0.01 µM	≥ 1 µM	≤ 0.01 µM	≥ 1 µM	≤ 0.01 µM	COc1ccc(-n2nc(C(F)(F)F)c3c2C(=O)N(C2CCN(N4CCCCC4=O)CC2)CC3)cc1 [Example 2, 1-(4-Methoxyphenyl)-6-(2′-oxo-[1,1′-bipiperidin]-4-yl)-3-(trifluoromethyl)-5,6-dihydro-1H-pyrazolo[3,4-c]pyridin-7(4H)-one]		
≤ 0.01 µM	≥ 1 µM	≤ 0.01 µM	≥ 1 µM	≤ 0.01 µM	COc1ccc(-n2nc(C(F)(F)F)c3c2C(=O)N(C2CCN(N4CCOCC4=O)CC2)CC3)cc1 [Example 1, 4-(4-(1-(4-Methoxyphenyl)-7-oxo-3-(trifluoromethyl)-4,5-dihydro-1H-pyrazolo[3,4-c]pyridin-6(7H)-yl)piperidin-1-yl)morpholin-3-one]		
0.05 to 1 µM	≥ 1 µM	≤ 0.01 µM	≥ 1 µM	≤ 0.01 µM	COc1ccc(-n2nc(C(N)=O)c3c2C(=O)N(N2CCC(N4CCCCC4=O)CC2)CC3)cc1 [Example 14, 1-(4-Methoxyphenyl)-7-oxo-6-(2-oxo-[1,4′-bipiperidin]-1′-yl)-4,5,6,7-tetrahydro-1H-pyrazolo[3,4-c]pyridine-3-carboxamide]		
≤ 0.01 µM	≥ 1 µM	≤ 0.01 µM	≥ 1 µM	≤ 0.01 µM	O=C1c2c(c(C(F)(F)F)nn2-c2cc3ccccc3cc2F)CCN1C1CCN(N2CCOCC2=O)CC1 [Example 29, 4-(4-(1-(3-Fluoronaphthalen-2-yl)-7-oxo-3-(trifluoromethyl)-4,5-dihydro-1H-pyrazolo[3,4-c]pyridin-6(7H)-yl)piperidin-1-yl)morpholin-3-one]		
≤ 0.01 µM	≥ 1 µM	≤ 0.01 µM	≥ 1 µM	≤ 0.01 µM	O=C1c2c(c(C(F)(F)F)nn2-c2ccc3cc(Cl)ccc3c2)CCN1C1CCN(N2CCOCC2=O)CC1 [Example 24, 4-(4-(1-(6-Chloronaphthalen-2-yl)-7-oxo-3-(trifluoromethyl)-4,5-dihydro-1H-pyrazolo[3,4-c]pyridin-6(7H)-yl)piperidin-1-yl)morpholin-3-one]		
